In patent EP0000336A1, “N-benzylpyrimidinyl-amidines, process for their preparation and medicines containing them” (BASF Aktiengesellschaft, priority 1977, dated 1979):

Tested on: Streptococcus agalactiae 7941
Assay: Aronson sepsis model in mice, sulfonamide potentiation compared with trimethoprim
Type: in vivo
Conditions: female mice (groups of 30), lethal dose of Streptococcus agalactiae 7941; treated 2 h after infection with 300 mg 2-Sulfanilamido-4,5-dimethyloxazol + 60 mg test substance; survivors after 44 h divided by survivors of the group given 300 mg 2-Sulfanilamido-4,5-dimethyloxazol + 60 mg Trimethoprim
From the text: Verwendet man beispielsweise N-[4-Amino-5-(3,4,5-trimethoxybenzyl)-pyrimidin-2-yl]-acetamidsäureäthylester und Anilin als Ausgangsstoffe, so kann der Reaktionsverlauf durch folgendes Formelschema wiedergegeben werden: [drawing 7] 2um Wirksamkeitsnachweis wurden erfindungsgemäße Substanzen im Tierversuch am Modell der sogenannten Aronson-Sepsis, wobei mit Streptococcus agalactiae infiziert wird, geprüft und mit dem bekannten Trimethoprim verglichen. Hierzu wurden Gruppen von je 30 weiblichen Mäusen mit einer tödlichen Dosis von Streptococcus agalactiae 7941 infiziert und 2 Stunden nach der Infektion mit einer Mischung von 300 mg 2-Sulfanilamido-4,5-dimethyloxazol + 60 mg einer der erfindungsgemäßen Substanzen behandelt. Außer einer nicht behandelten Kontrollgruppe wurde eine zweite Gruppe mit dem als Referenzsubstanz dienenden Gemisch von 300 mg 2-Sulfanilamido-4,5-dimethyloxazol + 60 mg Trimethoprim behandelt. Nach 44 Stunden wurde die Zahl der überlebenden Tiere bestimmt und diese Zahl durch die Zahl der überlebenden aus der mit der Referenzsubstanz behandelten Gruppe dividiert. Der so erhaltene Zahlenwert (Trimethoprimfaktor) ist ein Maß für die Wirkung der erfindungsgemäßen Substanzen im Vergleich zum Trimethoprim. F = 2 bedeutet also, daß die Substanz doppelt so wirksam ist wie Trimethoprim. […]

Which “F (Trimethoprimfaktor)” value does the source give for `COc1cc(Cc2cnc(N=C(C)N(C)C)nc2N)cc(OC)c1OC` [Beispiel 1] here?
Its value is 1,2.
